# From ChEMBL document CHEMBL1201862, “PubChem BioAssay data set” (2004)
#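 Protocol summary: plate cells (96-well), add compound at 5 concentrations, incubate 48 h, interpolate endpoints linearly. At the GI50, growth is halved.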 The source made the active and inactive calls. Rule as the data show it: active = GI50 up to about 1.1 µM and inactive = higher.
# Key:
# Assay in all cases: DTP human tumour cell line panel, 48 h
# 786-0 = tested on: 786-0
# A498 = tested on: A498
# A549 = tested on: A549
# ACHN = tested on: ACHN
# CAKI-1 = tested on: CAKI-1
# CCRF-CEM = tested on: CCRF-CEM
# COLO 205 = tested on: COLO 205
# DLD-1 = tested on: DLD-1
# DMS-114 = tested on: DMS-114
# DMS-273 = tested on: DMS-273
# EKVX = tested on: EKVX
# HCT-116 = tested on: HCT-116
# HCT-15 = tested on: HCT-15
# HL-60 = tested on: HL-60
# HOP-62 = tested on: HOP-62
# HOP-92 = tested on: HOP-92
# HT-29 = tested on: HT-29
# IGROV-1 = tested on: IGROV-1
# K562 = tested on: K562
# KM-20L2 = tested on: KM-20L2
# LOX IMVI = tested on: LOX IMVI
# LXFL 529 = tested on: LXFL 529
# M14 = tested on: M14
# M19-MEL = tested on: M19-MEL
# MOLT-4 = tested on: MOLT-4
# Malme-3M = tested on: Malme-3M
# NCI-H226 = tested on: NCI-H226
# NCI-H23 = tested on: NCI-H23
# NCI-H460 = tested on: NCI-H460
# NCI-H522 = tested on: NCI-H522
# OVCAR-3 = tested on: OVCAR-3
# OVCAR-4 = tested on: OVCAR-4
# OVCAR-5 = tested on: OVCAR-5
# OVCAR-8 = tested on: OVCAR-8
# RPMI-8226 = tested on: RPMI-8226
# RXF 393 = tested on: RXF 393
# RXF 631 = tested on: RXF 631
# SF-268 = tested on: SF-268
# SF-295 = tested on: SF-295
# SF-539 = tested on: SF-539
# SK-MEL-28 = tested on: SK-MEL-28
# SK-MEL-2 = tested on: SK-MEL-2
# SK-MEL-5 = tested on: SK-MEL-5
# SK-OV-3 = tested on: SK-OV-3
# SN12C = tested on: SN12C
# SNB-19 = tested on: SNB-19
# SNB-75 = tested on: SNB-75
# SNB-78 = tested on: SNB-78
# SW-620 = tested on: SW-620
# TK-10 = tested on: TK-10
# UACC-257 = tested on: UACC-257
# UACC-62 = tested on: UACC-62
# UO-31 = tested on: UO-31
# XF498 = tested on: XF498
# HCC 2998 = tested on: HCC 2998
# KM12 = tested on: KM12
# SR = tested on: SR
# U-251 = tested on: U-251
compound,measurement,setting,value
O=C(c1ccccc1)C1OC12C(=O)Nc1ccccc12 (configuration not stated),GI50,786-0,45.7 µM (inactive)
same,GI50,A498,73.1 µM (inactive)
same,GI50,A549,46.7 µM (inactive)
same,GI50,ACHN,56.9 µM (inactive)
same,GI50,CAKI-1,20.8 µM (inactive)
same,GI50,CCRF-CEM,5.68 µM (inactive)
same,GI50,COLO 205,18 µM (inactive)
same,GI50,DLD-1,32.7 µM (inactive)
same,GI50,DMS-114,27 µM (inactive)
same,GI50,DMS-273,38 µM (inactive)
same,GI50,EKVX,47.6 µM (inactive)
same,GI50,HCT-116,36.2 µM (inactive)
same,GI50,HCT-15,> 10 µM
same,GI50,HL-60,3.27 µM (inactive)
same,GI50,HOP-62,62.5 µM (inactive)
same,GI50,HOP-92,20.3 µM (inactive)
same,GI50,HT-29,19.7 µM (inactive)
same,GI50,IGROV-1,47.6 µM (inactive)
same,GI50,K562,4.5 µM (inactive)
same,GI50,KM-20L2,28.1 µM (inactive)
same,GI50,LOX IMVI,45 µM (inactive)
same,GI50,LXFL 529,16.5 µM (inactive)
same,GI50,M14,21.8 µM (inactive)
same,GI50,M19-MEL,30.4 µM (inactive)
same,GI50,MOLT-4,8.15 µM (inactive)
same,GI50,Malme-3M,29.6 µM (inactive)
same,GI50,NCI-H226,33.4 µM (inactive)
same,GI50,NCI-H23,21.5 µM (inactive)
same,GI50,NCI-H460,41.7 µM (inactive)
same,GI50,NCI-H522,13.3 µM (inactive)
same,GI50,OVCAR-3,34.8 µM (inactive)
same,GI50,OVCAR-4,47.8 µM (inactive)
same,GI50,OVCAR-5,> 100 µM (inactive)
same,GI50,OVCAR-8,32.5 µM (inactive)
same,GI50,RPMI-8226,20.7 µM (inactive)
same,GI50,RXF 393,20.9 µM (inactive)
same,GI50,RXF 631,46 µM (inactive)
same,GI50,SF-268,59.8 µM (inactive)
same,GI50,SF-295,27 µM (inactive)
same,GI50,SF-539,23.7 µM (inactive)
same,GI50,SK-MEL-28,29.6 µM (inactive)
same,GI50,SK-MEL-2,44.2 µM (inactive)
same,GI50,SK-MEL-5,11.3 µM (inactive)
same,GI50,SK-OV-3,35.6 µM (inactive)
same,GI50,SN12C,49.4 µM (inactive)
same,GI50,SNB-19,37.3 µM (inactive)
same,GI50,SNB-75,15.2 µM (inactive)
same,GI50,SNB-78,43.5 µM (inactive)
same,GI50,SW-620,21.4 µM (inactive)
same,GI50,TK-10,40.3 µM (inactive)
same,GI50,UACC-257,35.7 µM (inactive)
same,GI50,UACC-62,40.7 µM (inactive)
same,GI50,UO-31,26.5 µM (inactive)
same,GI50,XF498,26.2 µM (inactive)
CCN(CC)CCNc1ccc2nnn3c4ccccc4c(=O)c1c23,GI50,786-0,4.3 µM (inactive)
same,GI50,A498,11.4 µM (inactive)
same,GI50,A549,3.59 µM (inactive)
same,GI50,ACHN,3.24 µM (inactive)
same,GI50,CAKI-1,3.15 µM (inactive)
same,GI50,CCRF-CEM,2.86 µM (inactive)
same,GI50,COLO 205,3.55 µM (inactive)
same,GI50,DLD-1,4.19 µM (inactive)
same,GI50,DMS-114,6.55 µM (inactive)
same,GI50,DMS-273,3.66 µM (inactive)
same,GI50,EKVX,4.13 µM (inactive)
same,GI50,HCC 2998,7.31 µM (inactive)
same,GI50,HCT-116,4.44 µM (inactive)
same,GI50,HCT-15,4.51 µM
same,GI50,HL-60,2.89 µM (inactive)
same,GI50,HOP-62,4.18 µM (inactive)
same,GI50,HOP-92,2.48 µM (inactive)
same,GI50,HT-29,2.51 µM (inactive)
same,GI50,IGROV-1,6.98 µM (inactive)
same,GI50,K562,2.97 µM (inactive)
same,GI50,KM-20L2,3.32 µM (inactive)
same,GI50,KM12,4.01 µM (inactive)
same,GI50,LOX IMVI,2.86 µM (inactive)
same,GI50,LXFL 529,5.22 µM (inactive)
same,GI50,M14,3.86 µM (inactive)
same,GI50,M19-MEL,4.86 µM (inactive)
same,GI50,MOLT-4,1.66 µM (inactive)
same,GI50,Malme-3M,4.01 µM (inactive)
same,GI50,NCI-H226,2.01 µM (inactive)
same,GI50,NCI-H23,5.81 µM (inactive)
same,GI50,NCI-H460,2.25 µM (inactive)
same,GI50,NCI-H522,4.75 µM (inactive)
same,GI50,OVCAR-3,5.07 µM (inactive)
same,GI50,OVCAR-4,3.51 µM (inactive)
same,GI50,OVCAR-5,3.67 µM (inactive)
same,GI50,OVCAR-8,3.15 µM (inactive)
same,GI50,RPMI-8226,2.45 µM (inactive)
same,GI50,RXF 393,6.21 µM (inactive)
same,GI50,RXF 631,2.88 µM (inactive)
same,GI50,SF-268,4.83 µM (inactive)
same,GI50,SF-295,4.29 µM (inactive)
same,GI50,SF-539,6.84 µM (inactive)
same,GI50,SK-MEL-28,4.65 µM (inactive)
same,GI50,SK-MEL-2,6.85 µM (inactive)
same,GI50,SK-MEL-5,3.08 µM (inactive)
same,GI50,SK-OV-3,17.4 µM (inactive)
same,GI50,SN12C,4.41 µM (inactive)
same,GI50,SNB-19,5.74 µM (inactive)
same,GI50,SNB-75,3.6 µM (inactive)
same,GI50,SNB-78,> 10 µM (inactive)
same,GI50,SR,1.15 µM (inactive)
same,GI50,SW-620,1.43 µM (inactive)
same,GI50,TK-10,4.39 µM (inactive)
same,GI50,U-251,3.27 µM (inactive)
same,GI50,UACC-257,4.48 µM (inactive)
same,GI50,UACC-62,5.73 µM (inactive)
same,GI50,UO-31,4.46 µM (inactive)
same,GI50,XF498,3.49 µM (inactive)
